Measurements published in ChEMBL document CHEMBL1201862, “PubChem BioAssay data set” (2004).
The source made the active and inactive calls.

Tests used:
[1] = target: Nonstructural protein 1 (Influenza A virus, UniProt Q194T2); format: functional, Influenza A virus (A/California/07/2009(H1N1))
[2] = THP-1 cell cytotoxicity, dose response, cytotoxicity control for non-replicating M. tuberculosis project (AID 489025); format: functional
[3] = microbe, parasite or virus in culture; format: functional; conditions: Mycobacterium tuberculosis
[4] = cells; format: functional
[5] = HepG2 cell cytotoxicity, dose response, cytotoxicity control for non-replicating M. tuberculosis project (AID 489018); format: functional; conditions: Mycobacterium tuberculosis
[6] = Vero E6 cell cytotoxicity, dose response, cytotoxicity control for non-replicating M. tuberculosis project, secondary assay (AID 492998); format: functional, VeroE6; conditions: Vero C1008
[7] = bead-based luminescence quenchers, dual-tagged ARNT – biochemical, AlphaScreen, cherry-pick, artefact control for ARNT-TACC3 interaction inhibitor project, dose response (AID 651705); format: functional;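 further: AlphaScreen bead proximity signal that flags compounds interfering with the detection technology; potency reflects signal decrease which marks the compound as an assay artifact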
[8] = target: Female germline-specific tumor suppressor gld-1 (Caenorhabditis elegans, UniProt Q17339); experiment: blockers of GLD-1/TGE RNA complex formation – biochemical, fluorescence polarization, C. elegans, dose response (AID 2802);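 further: fluorescence polarization of labeled TGE RNA bound by purified gld-1 protein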
[9] = target: T1, Polyadenylate-binding protein 1 (Homo sapiens, UniProt P11940); experiment: MLLE binding blockers, Cy5 peptide tracer – biochemical, fluorescence polarization, Cy5-PAM2 peptide, secondary, miRNA deadenylation inhibitor project, dose response (AID 602260); format: functional; conditions: read-out: IC50_Mean
[10] = target: T1, Polyadenylate-binding protein 1; experiment: MLLE domain peptide-binding blockers, IC50 – biochemical, fluorescence polarization, FITC-PAM2 peptide, dose response (AID 602259); format: functional; conditions: read-out: IC50_Mean
[11] = target: T2, Zinc finger protein mex-5 (Caenorhabditis elegans, UniProt Q9XUB2); experiment: potency of MEX-5 RNA-binding blockers – biochemical, C. elegans, fluorescence polarization, dose response (AID 1960)
T2 sequence (Q9XUB2 whole entry): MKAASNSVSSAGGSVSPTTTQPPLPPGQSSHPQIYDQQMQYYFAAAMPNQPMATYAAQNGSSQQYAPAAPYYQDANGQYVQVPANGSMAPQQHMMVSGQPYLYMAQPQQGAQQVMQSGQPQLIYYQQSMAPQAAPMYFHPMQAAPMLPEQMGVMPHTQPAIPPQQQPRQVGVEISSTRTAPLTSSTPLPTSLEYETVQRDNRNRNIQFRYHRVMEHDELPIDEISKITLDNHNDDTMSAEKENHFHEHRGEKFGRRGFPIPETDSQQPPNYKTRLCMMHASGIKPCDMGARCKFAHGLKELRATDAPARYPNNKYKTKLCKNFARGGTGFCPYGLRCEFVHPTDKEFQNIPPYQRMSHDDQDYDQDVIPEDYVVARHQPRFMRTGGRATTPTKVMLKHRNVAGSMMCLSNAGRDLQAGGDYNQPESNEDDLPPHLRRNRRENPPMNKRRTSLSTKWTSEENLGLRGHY

[12] = target: Protein Rev (Human immunodeficiency virus type 1 group M subtype B (isolate HXB2)(HIV-1), UniProt P04618); experiment: blockers of HIV Rev/RRE RNA complex – biochemical, fluorescence polarization, HIV-1, dose response (AID 434976); set-up: species or system Human immunodeficiency virus 1
[13] = target: T3, RNA-binding protein pos-1 (Caenorhabditis elegans, UniProt G5EF15); experiment: disruptors of C. elegans POS-1 RNA interaction – biochemical, fluorescence polarization, dose response (AID 1964);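 further: purified POS-1 fused to maltose binding protein made in E. coli; potency of compounds blocking POS-1 binding to fluorescent RNA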
T3 sequence (G5EF15 whole entry): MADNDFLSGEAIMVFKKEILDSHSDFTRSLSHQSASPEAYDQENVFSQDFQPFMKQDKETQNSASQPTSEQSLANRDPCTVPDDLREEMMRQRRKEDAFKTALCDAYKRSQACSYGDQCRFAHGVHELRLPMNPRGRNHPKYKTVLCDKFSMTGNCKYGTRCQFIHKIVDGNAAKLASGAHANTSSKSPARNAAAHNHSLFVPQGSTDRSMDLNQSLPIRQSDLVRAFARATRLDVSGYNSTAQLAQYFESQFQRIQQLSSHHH

[14] = blockade of melanocortin 4 receptor signaling – cell-based, plate reader, cherry pick, counter-screen for LGR2 antagonist project, dose response (AID 743444); format: functional;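 further: transfected HEK 293 cells stimulated with alpha-MSH peptide; potency of inhibitors of the alpha-MSH evoked signal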
[15] = blockers of bursicon-stimulated LGR2 cAMP reporter – cell-based, HEK293, CRE-luciferase reporter, cherry pick, set 2, dose response (AID 743343); format: functional;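 further: transfected cells were stimulated with diluted bursicon conditioned medium after compound addition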
[16] = cells; format: functional, cell-based
[17] = target: T4, DNA dC->dU-editing enzyme APOBEC-3A (Homo sapiens, UniProt P31941); experiment: Dose Response confirmation of small molecule APOBEC3A DNA Deaminase Inhibitors via a fluorescence-based single-stranded DNA deaminase assay. [Related pubchem assays (depositor defined):AID493011, AID493024]; format: functional
[18] = target: T5, DNA dC->dU-editing enzyme APOBEC-3G (Homo sapiens, UniProt Q9HC16); format: functional
[19] = target: T6, Nuclear receptor subfamily 0 group B member 1 (Homo sapiens, UniProt P51843); format: functional, cell-based;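 further: HEK293T cells transfected with SF-1 and DAX-1 plus StAR promoter luciferase reporter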
T6 sequence (P51843 whole entry): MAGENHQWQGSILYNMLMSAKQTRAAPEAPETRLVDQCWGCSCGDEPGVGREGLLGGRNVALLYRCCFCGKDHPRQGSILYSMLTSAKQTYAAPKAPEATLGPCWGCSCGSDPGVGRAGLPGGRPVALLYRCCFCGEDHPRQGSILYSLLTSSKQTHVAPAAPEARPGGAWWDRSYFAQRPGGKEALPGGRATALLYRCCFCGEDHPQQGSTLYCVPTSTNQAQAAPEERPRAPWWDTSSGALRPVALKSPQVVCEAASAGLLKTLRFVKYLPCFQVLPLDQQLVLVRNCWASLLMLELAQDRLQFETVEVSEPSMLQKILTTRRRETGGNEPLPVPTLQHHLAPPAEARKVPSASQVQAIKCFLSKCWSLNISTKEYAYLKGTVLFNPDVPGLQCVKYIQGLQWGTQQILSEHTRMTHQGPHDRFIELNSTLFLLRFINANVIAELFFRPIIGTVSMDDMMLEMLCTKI

[20] = toxicity toward HepG2 liver cells – cell-based, plate reader, cherry-pick, antagonist series, cytotoxicity control, dose response (AID 743416); format: functional
[21] = target: T7, Phosphomannomutase 2 (Homo sapiens, UniProt O15305); experiment: Counter screen SAR assay for PMM2 inhibitors via a fluorescence intensity assay. [Related pubchem assays (depositor defined):AID1545, AID1574]
T7 sequence (O15305 whole entry): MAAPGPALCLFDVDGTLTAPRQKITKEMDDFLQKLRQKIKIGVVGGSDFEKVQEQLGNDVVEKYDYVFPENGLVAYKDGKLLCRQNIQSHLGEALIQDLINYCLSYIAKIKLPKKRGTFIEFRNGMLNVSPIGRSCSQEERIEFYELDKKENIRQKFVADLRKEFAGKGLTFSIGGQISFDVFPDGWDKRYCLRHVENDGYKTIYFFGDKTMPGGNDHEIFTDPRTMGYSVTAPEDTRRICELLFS

[22] = target: Phosphoethanolamine/phosphocholine phosphatase (Homo sapiens, UniProt Q8TCT1); experiment: SAR assay for compounds that inhibit PHOSPHO1. [Related pubchem assays (depositor defined):AID1545, AID1565, AID1574]
[23] = target: T8, Mannose-6-phosphate isomerase (Homo sapiens, UniProt P34949); experiment: phosphomannose isomerase inhibition – biochemical, fluorescence intensity, confirmation (AID 1535)
T8 sequence (P34949 whole entry): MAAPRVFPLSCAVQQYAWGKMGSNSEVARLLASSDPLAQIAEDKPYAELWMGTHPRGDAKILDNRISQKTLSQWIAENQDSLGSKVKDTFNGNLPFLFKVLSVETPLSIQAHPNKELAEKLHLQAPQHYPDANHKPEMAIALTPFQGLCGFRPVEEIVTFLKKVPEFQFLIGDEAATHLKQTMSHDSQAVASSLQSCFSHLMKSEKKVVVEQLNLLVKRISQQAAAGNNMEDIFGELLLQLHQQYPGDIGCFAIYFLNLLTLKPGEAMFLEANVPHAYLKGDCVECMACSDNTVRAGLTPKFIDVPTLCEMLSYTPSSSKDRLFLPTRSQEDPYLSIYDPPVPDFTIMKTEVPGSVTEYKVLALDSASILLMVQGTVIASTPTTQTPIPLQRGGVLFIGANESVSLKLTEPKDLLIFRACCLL

[24] = target: T5, DNA dC->dU-editing enzyme APOBEC-3G; experiment: Dose Response confirmation of small molecule APOBEC3G DNA Deaminase Inhibitors via a fluorescence-based single-stranded DNA deaminase assay. [Related pubchem assays (depositor defined):AID493012, AID493028]; format: functional
[25] = target: T4, DNA dC->dU-editing enzyme APOBEC-3A; experiment: A3A deaminase inhibition for selectivity – biochemical, dose response (AID 504722); format: functional

T5 sequence (Q9HC16 whole entry): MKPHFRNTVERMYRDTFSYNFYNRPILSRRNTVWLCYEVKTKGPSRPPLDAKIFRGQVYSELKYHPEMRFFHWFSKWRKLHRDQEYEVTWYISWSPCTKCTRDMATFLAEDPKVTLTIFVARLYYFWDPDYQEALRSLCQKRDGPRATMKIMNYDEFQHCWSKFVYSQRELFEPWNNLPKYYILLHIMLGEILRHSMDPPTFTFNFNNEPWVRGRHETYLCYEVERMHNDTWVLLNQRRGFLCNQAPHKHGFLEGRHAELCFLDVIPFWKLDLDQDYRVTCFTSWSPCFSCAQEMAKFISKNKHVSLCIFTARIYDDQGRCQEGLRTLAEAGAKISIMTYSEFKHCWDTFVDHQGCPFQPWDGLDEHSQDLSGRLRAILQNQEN
T1 sequence (P11940 whole entry, the tested form may be a part): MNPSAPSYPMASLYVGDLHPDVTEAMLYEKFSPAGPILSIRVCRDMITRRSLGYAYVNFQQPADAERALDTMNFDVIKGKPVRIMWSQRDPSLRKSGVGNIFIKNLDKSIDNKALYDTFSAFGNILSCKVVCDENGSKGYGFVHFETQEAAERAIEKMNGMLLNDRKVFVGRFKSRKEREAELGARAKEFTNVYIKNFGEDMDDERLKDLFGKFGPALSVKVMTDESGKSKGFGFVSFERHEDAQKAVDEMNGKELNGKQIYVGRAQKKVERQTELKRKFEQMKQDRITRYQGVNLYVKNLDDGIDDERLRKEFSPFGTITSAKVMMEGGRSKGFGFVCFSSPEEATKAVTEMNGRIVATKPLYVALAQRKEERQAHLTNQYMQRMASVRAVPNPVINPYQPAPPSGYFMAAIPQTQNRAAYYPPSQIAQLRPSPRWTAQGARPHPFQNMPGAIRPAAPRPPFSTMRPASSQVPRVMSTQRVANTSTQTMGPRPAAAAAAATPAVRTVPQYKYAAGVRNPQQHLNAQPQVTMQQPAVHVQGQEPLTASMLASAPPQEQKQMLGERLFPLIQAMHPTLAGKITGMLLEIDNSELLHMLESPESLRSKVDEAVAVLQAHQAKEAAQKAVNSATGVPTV
T4 sequence (P31941 whole entry): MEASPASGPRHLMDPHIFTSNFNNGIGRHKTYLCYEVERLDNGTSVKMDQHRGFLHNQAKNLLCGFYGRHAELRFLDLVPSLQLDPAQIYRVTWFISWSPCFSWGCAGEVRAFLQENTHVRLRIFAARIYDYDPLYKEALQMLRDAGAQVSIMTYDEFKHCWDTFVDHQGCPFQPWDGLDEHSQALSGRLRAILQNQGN
Phosphoethanolamine/phosphocholine phosphatase, sequence (Q8TCT1 whole entry): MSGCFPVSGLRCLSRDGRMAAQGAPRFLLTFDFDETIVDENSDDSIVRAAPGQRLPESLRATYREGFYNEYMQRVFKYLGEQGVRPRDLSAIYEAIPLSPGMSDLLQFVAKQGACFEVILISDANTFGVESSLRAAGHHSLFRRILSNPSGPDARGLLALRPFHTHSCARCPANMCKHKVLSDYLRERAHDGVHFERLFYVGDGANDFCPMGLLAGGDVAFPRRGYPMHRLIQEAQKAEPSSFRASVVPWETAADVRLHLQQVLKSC
Nonstructural protein 1, sequence (Q194T2 whole entry): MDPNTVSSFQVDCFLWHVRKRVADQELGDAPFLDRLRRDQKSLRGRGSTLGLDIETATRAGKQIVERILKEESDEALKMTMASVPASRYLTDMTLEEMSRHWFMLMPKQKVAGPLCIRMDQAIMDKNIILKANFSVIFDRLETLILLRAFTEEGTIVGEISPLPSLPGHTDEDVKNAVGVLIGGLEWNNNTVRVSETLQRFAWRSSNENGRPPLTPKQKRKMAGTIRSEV
Protein Rev, sequence (P04618 whole entry, the tested form may be a part): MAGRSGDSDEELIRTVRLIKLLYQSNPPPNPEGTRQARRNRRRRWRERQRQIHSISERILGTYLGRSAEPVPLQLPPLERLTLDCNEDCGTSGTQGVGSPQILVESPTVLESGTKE
Female germline-specific tumor suppressor gld-1, sequence (Q17339 whole entry): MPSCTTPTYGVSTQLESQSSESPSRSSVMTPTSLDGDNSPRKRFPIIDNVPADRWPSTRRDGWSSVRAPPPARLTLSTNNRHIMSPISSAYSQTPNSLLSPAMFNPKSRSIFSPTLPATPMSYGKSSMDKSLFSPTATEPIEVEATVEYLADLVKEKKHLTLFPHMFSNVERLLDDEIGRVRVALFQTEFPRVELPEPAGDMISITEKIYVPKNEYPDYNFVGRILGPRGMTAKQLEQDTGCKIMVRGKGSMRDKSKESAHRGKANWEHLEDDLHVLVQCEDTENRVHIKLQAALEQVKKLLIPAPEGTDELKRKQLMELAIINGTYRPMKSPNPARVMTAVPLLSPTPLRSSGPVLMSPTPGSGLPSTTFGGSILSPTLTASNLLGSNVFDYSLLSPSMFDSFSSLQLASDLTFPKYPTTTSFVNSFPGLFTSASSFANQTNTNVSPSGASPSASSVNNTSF

Q: With `O=C(CCS(=O)(=O)c1ccc(F)cc1)Nc1nc(-c2ccccn2)cs1` as the compound, how does the IC50 [1] read?
A: Its IC50 is 21.5 µM (active).

Q: And the CC50 [2]?
A: Its CC50 is 23.6 µM (active).

Q: And the CC50 [3]?
A: The CC50 was 21.1 µM (active).

Q: What about the IC50 [4] of the same compound?
A: Its IC50 is 6.21 µM (active).

Q: What about the CC50 [5] of the same compound?
A: Its CC50 is > 20 µM (active).

Q: And the CC50 [6]?
A: The CC50 was 12 µM (active).

Q: And the AC50 [7]?
A: The AC50 was 99.2 µM (active).

Q: What does the source list for `COc1ccc(NC(=O)Nc2cc(C)cc(C)c2)cn1`?
A: IC50 [8]: 7.15 µM (active); IC50 [9]: > 66 µM (inactive); IC50 [10]: 21.8 µM (inactive); EC50 [11]: 27.4 µM (active); IC50 [12]: 11.4 µM (not active); EC50 [13]: 186 µM (active)

Q: Which AC50 [14] does the source give for `COc1ccc2sc(NC(=O)c3ccco3)nc2c1` here?
A: The AC50 was 8.55 µM (active).

Q: What about the AC50 [15] of the same compound?
A: Its AC50 is 7.49 µM (active).

Q: What about the IC50 [16] of the same compound?
A: The IC50 was > 67.5 µM (inactive).

Q: What about the IC50 [17] of the same compound?
A: Its IC50 is 17.3 µM (active).

Q: What about the IC50 [18] of the same compound?
A: The IC50 was 10.3 µM (active).

Q: What about the IC50 [19] of the same compound?
A: The IC50 was > 67.5 µM (inactive).

Q: What about the AC50 [20] of the same compound?
A: The AC50 was > 52 µM (inactive).

Q: Which IC50 [21] does the source give for `O=c1c2ccccc2sn1-c1cccc(C(F)(F)F)c1` here?
A: The IC50 was > 100 µM (inactive).

Q: What about the IC50 [22] of the same compound?
A: The IC50 was 11.6 µM (inactive).

Q: And the IC50 [23]?
A: The IC50 was 23.7 µM (active).

Q: For `Fc1cccc(Cl)c1/C=N/n1c(S)nnc1-c1cccnc1`, which IC50 [24] is on record?
A: Its IC50 is 2.73 µM (active).

Q: What about the IC50 [25] of the same compound?
A: Its IC50 is > 100 µM (inactive).
